Data published in patent US20050019825A9, “Common ligand mimics: pseudothiohydantoins” (priority 2002, published 2005).
Read-outs that look alike come from different tables or passages of the source.

What was measured:
[1] = biological target: dihydrofolate reductase (DHFR) (UniProt P00374); experiment: DHFR kinetic assay, spectrophotometric oxidation of NADH (340 nm); assay type: biochemical
Protocol: For DHFR analysis, the compounds were screened using a kinetic protocol that spectrophotometrically evaluates oxidation of NADH.
Stock solutions of each of the reagents were prepared in the following concentrations. Dilutions of the stock solutions were prepared prior to running the assay in the concentrations indicated below. H2 folate was dissolved in DMSO to about 10 mM and then diluted with water to a concentration of 0.1 mM.
The DHFR reaction was monitored at 340 nm prior to and after addition of the inhibitor to detect background reaction with the inhibitor. Solutions of 100 μl of the inhibitors in DMSO were prepared to provide a final DMSO concentration of 5% of the total assay volume. These solutions were incubated for 6 minutes at 25° C. in a 992 μl of a solution containing 0.1 M Tris-HCl, pH 7.0, 150 mM KCl, 5 μM H2 folate, and 52 μM NADH. The oxidation reaction was then initiated with 8 μl of DHFR (0.047 mg/ml). After the enzyme was added, the solution was mixed for 20 seconds, and the reaction was run for 10 minutes. After a 50 second lag, the samples were read in a Cary spectrophotometer at 340 nm. Reading of the samples was continued until 300 seconds. Cuvette #1 always contained the control reaction (no inhibitor), and cuvette #2 always contained the positive control reaction in which Cibacron Blue at 3 μM was substituted for inhibitor to yield 50 to 70% inhibition. The substrate was kept at a level at least 10 times the Km.

[2] = biological target: 1-deoxy-D-xylulose-5-phosphate reductase (DOXPR) (Escherichia coli, UniProt P45568); experiment: DOXPR kinetic assay, spectrophotometric oxidation of NADPH (340 nm); assay type: biochemical
Protocol: For DOXPR analysis, the compounds were screened using a kinetic protocol that spectrophotometrically evaluates oxidation of NADPH.
Stock solutions of each of the reagents were prepared in the following concentrations. Dilutions of the stock solutions were prepared prior to running the assay in the concentrations indicated below. DOXPR was diluted in 10 mM HEPES at a pH of 7.4.
The DOXPR reaction was monitored at 340 nm prior to and after addition of the inhibitor to detect background reaction with the inhibitor. Solutions of the inhibitors in DMSO were prepared to provide a final DMSO concentration of 5% of the total assay volume. These solutions were incubated for 6 minutes at 25° C. in a 990 μl of a solution containing 0.1 M HEPES, pH 7.4, 1 mM MnCl2 1.15 mM DOXP, and 8 μM NADPH. The oxidation reaction was then initiated with 10 μl of DOXP reductoisomerase (10 μg/ml). After the enzyme was added, the solution was mixed for 20 seconds, and the reaction was run for 10 minutes. After a 50 second lag, the samples were read in a Cary spectrophotometer at 340 nm. Reading of the samples was continued until 300 seconds. Cuvette #1 contained the control reaction (no inhibitor), and cuvette #2 contained the positive control reaction in which Cibacron Blue at 10.32 μM was substituted for inhibitor to yield 70 to 80% inhibition. The substrate was kept at a level at least 10 times the Km.

[3] = biological target: T1, alcohol dehydrogenase (ADH) (Saccharomyces cerevisiae, UniProt P00330); experiment: ADH kinetic assay, spectrophotometric reduction of NAD+ (340 nm); assay type: biochemical, Bakers Yeast
T1 construct: 10 μl of ADH from Bakers Yeast; host or cells: bakers yeast
T1 sequence (P00330 1-348): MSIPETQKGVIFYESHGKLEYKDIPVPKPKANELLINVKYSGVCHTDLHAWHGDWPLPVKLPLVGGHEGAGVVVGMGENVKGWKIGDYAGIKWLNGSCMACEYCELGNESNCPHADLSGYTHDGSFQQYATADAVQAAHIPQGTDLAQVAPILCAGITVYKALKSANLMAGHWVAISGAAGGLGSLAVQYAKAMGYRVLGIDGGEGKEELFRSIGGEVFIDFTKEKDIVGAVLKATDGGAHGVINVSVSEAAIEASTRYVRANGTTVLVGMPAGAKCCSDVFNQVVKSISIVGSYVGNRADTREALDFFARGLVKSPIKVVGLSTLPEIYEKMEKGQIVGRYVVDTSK
Protocol: For ADH analysis, the compounds were screened using a kinetic protocol that spectrophotometrically evaluates reduction of NAD+.
Stock solutions of each of the reagents were prepared in the following concentrations. Dilutions of the stock solutions were prepared prior to running the assay in the concentrations indicated below.
The ADH reaction was monitored at 340 nm prior to and after addition of the inhibitor to detect background reaction with the inhibitor. Solutions of 100 μl of the inhibitors in DMSO were prepared to provide a final DMSO concentration of 5% of the total assay volume. These solutions were incubated for 6 minutes at 25° C. in a 990 μl of a solution containing 0.1 M HEPES, pH 8.0, 80 μM NAD+, and 130 mM of ethanol. The reaction was then initiated with 10 μl of ADH from Bakers Yeast ([…]; 1:400 dilution of 1.0 mg/ml). After the enzyme was added, the solution was mixed for 20 seconds, and the reaction was run for 10 minutes. After a 50 second lag, the samples were read in a Cary spectrophotometer at 340 nm. Reading of the samples was continued until 300 seconds. […] The substrate was kept at a level at least 10 times the Km. The final concentration of […] was about 2.5 mM.
Where only a simple read was desired, as in the case of NAD+ concentration determination, 13 μl (10 M stock) of ethanol was used to drive the reaction, and 10 μl of pure enzyme (1 mg/ml) was used. NAD+ was soluble at 2 mM, which allowed the concentration determination step to be skipped. In this situation, the procedure was as follows. All of the ingredients except for the enzyme were mixed together. The solution was mixed well and the absorbance at 340 nm read. The enzyme was added and read again at OD 340 after the absorbance stopped changing, generally 10 to 15 minutes after the enzyme was added.

[4] = common ligand mimics, Examples 23/24; read-out: IC50 for DHFR
[5] = common ligand mimics, Examples 23/24, read-out: IC50 for DOXPR
[6] = read-out: IC50 for DHFR; common ligand mimics, Examples 23/24

1-deoxy-D-xylulose-5-phosphate reductase (DOXPR), sequence (P45568 whole entry): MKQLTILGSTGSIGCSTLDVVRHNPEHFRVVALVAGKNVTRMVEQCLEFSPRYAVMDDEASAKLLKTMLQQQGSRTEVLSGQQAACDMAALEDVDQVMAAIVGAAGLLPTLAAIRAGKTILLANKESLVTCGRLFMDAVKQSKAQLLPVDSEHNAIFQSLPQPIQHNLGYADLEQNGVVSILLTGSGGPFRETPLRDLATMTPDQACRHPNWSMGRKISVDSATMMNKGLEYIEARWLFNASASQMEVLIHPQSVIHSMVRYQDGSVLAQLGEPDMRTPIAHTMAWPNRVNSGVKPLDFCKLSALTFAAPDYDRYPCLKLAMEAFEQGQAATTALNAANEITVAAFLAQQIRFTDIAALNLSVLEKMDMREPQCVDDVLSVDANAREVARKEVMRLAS
dihydrofolate reductase (DHFR), sequence (P00374 whole entry): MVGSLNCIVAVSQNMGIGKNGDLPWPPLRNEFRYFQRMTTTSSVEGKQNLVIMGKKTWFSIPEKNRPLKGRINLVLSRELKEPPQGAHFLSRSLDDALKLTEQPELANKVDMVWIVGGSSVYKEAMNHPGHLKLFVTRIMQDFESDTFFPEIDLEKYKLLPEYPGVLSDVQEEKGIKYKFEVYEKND

SMILES	IC50 [1, 4] [µM]	IC50 [2, 5] [µM]	IC50 [3] [µM]	inhibition of ADH (in words) ([3]; Example 24 (FIG. 6))	IC50 [1, 6] [µM]	IC50 [2] [µM]	inhibition at 15.5 µM ([3]; Cibacron Blue at 15.5 μM, read-out: inhibition of ADH, positive control) [%]	inhibition at 10.32 µM ([2]; Cibacron Blue at 10.32 μM, read-out: inhibition of DOXPR, positive control) [%]
COc1cc(O)ccc1C=C1SC(=N)NC1=O [5-(4-hydroxy-2-methoxy-benzylidene)-2-imino-thiazolidin-4-one]	> 100	> 100	–	–	–	–	–	–
N=C1NC(=O)C(=Cc2ccc(C(=O)O)cc2)S1 [4-(2-imino-4-oxo-thiazolidin-5-ylidenemethyl)-benzoic acid]	> 20	> 25	> 100	no inhibition	–	–	–	–
COc1cc(C=C2SC(N)=NC2=O)ccc1O [5-(4-hydroxy-3-methoxy-benzylidene)-2-imino-thiazolidin-4-one]	–	–	> 100	–	> 100	> 100	–	–
Nc1c(S(=O)(=O)O)cc(Nc2ccc(Nc3nc(Cl)nc(Nc4ccccc4S(=O)(=O)O)n3)c(S(=O)(=O)O)c2)c2c1C(=O)c1ccccc1C2=O [Cibacron Blue, reference compound]	–	–	–	–	–	–	50 to 60	70 to 80
N=C1NC(=O)C(=Cc2ccc(O)c([N+](=O)[O-])c2)S1 [5-(4-hydroxy-3-nitro-benzylidene)-2-imino-thiazolidin-4-one]	–	–	> 150	–	> 75	> 100	–	–
